Earlier results in patent publication US20030198597A1, “Novel macrocyclic activatible magnetic resonance imaging contrast agents” (priority 2002, published 2003).

Conditions: thermodynamic stability of the Gd3+ chelate complex; background statement

| stability constant (K) / formation constant, logK | SMILES |
| --- | --- |
| 22.4 | O=C([O-])CN(CCN(CC(=O)[O-])CC(=O)[O-])CCN(CC(=O)[O-])CC(=O)[O-].[Gd+3] [Gd(DTPA)^2−] |
| 28.5 | O=C([O-])CN1CCN(CC(=O)[O-])CCN(CC(=O)[O-])CCN(CC(=O)[O-])CC1.[Gd+3] [Gd-DOTA] |
